The values below come from patent publication US20230242494A1, “MALONITRILE DERIVATIVES” (Hoffmann-La Roche Inc., priority 2020, published 2023).

A word on the pIC50: it is the negative decadic logarithm of the IC50, by convention in mol/L.

pIC50: −log10 of the molar value.

T1 sequence (Q8N884 161-522): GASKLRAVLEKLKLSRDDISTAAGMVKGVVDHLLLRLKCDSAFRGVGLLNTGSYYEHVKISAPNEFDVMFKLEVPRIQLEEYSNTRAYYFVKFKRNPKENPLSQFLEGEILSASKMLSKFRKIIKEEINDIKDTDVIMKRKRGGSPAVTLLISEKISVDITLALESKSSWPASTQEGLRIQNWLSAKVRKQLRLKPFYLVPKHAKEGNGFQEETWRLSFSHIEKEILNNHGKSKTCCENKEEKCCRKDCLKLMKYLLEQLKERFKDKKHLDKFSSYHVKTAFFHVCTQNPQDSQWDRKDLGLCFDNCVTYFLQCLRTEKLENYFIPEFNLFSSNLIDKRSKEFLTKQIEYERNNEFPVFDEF

The test addresses T1, human cGAS (residues 161-522) (Homo sapiens, UniProt Q8N884).
T1 construct: human cGAS (residues 161-522); made in house
Briefly: cGAS Activity Assay—Malachite Green. The class given is biochemical. To be noted: recombinant purified human cGAS 25 nM; 80 μM ATP, 80 μM GTP, 100 nM ISD; 4 hour at RT; phosphate detection by Malachite Green. In short, it runs like this:
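Human cGAS (161-522, 25 nM) in 20 mM TRIS pH 7.5, 5 mM MgCl2, 0.01% BSA with 80 μM ATP, 80 μM GTP and 100 nM ISD DNA, 4 h at RT. Pyrophosphate converted by PPase, phosphate read with Malachite Green at 620 nm; IC50 from 4-parameter fit of 16-point series.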
On to `Cc1oncc1/C(O)=C(\C#N)C(=O)Nc1ncc(C(=O)N(C)Cc2ccccc2)cn1` [Example 100, N-benzyl-2-[[(Z)-2-cyano-3-hydroxy-3-(5-methylisoxazol-4-yl)prop-enoyl]amino]-N-methyl-2-pyrimidine-5-carboxamide], for which the negative-log IC50 (pIC50) was 7.15.

On to `Cc1oncc1/C(O)=C(\C#N)C(=O)Nc1ncc(CC2CCCCC2)cn1` [Example 88, (Z)-2-cyano-N-(5-(cyclohexylmethyl)pyrimidin-2-yl)-3-hydroxy-3-(5-methylisoxazol-4-yl)acrylamide], for which the pIC50 was 6.80.

For `Cc1oncc1/C(O)=C(\C#N)C(=O)Nc1ccc(Cc2ccccc2)cc1` [Example 74, (Z)-N-(4-benzylphenyl)-2-cyano-3-hydroxy-3-(5-methylisoxazol-4-yl)acrylamide], the pIC50 is 5.82.

Take `COc1cnc(NC(=O)/C(C#N)=C(\O)c2cnoc2C)nc1-c1ccccc1` [Example 124, (Z)-2-cyano-3-hydroxy-N-(5-methoxy-4-phenylpyrimidin-2-yl)-3-(5-methylisoxazol-4-yl)acrylamide]: the pIC50 was 6.77.

Regarding `Cc1oncc1/C(O)=C(\C#N)C(=O)Nc1ccc(CC(=O)O)cc1` [Example 145, 2-[4-[[(Z)-2-Cyano-3-hydroxy-3-(5-methylisoxazol-4-yl)prop-2-enoyl]amino]phenyl]acetic acid], the pIC50 was 6.33.

For the compound `Cc1nnc(NS(=O)(=O)c2ccc(NC(=O)/C(C#N)=C(\O)c3cnoc3C)cc2)s1` [Example 43, (Z)-2-cyano-3-hydroxy-3-(5-methylisoxazol-4-yl)-N-[4-[(5-methyl-1,3,4-thiadiazol-2-yl)sulfamoyl]phenyl]prop-2-enamide], the pIC50 is 6.68.

For the compound `Cc1cc(NC(=O)/C(C#N)=C(\O)c2cnoc2C)ccc1Oc1ccc(C(F)(F)F)cc1` [Example 19, (Z)-2-cyano-3-hydroxy-N-(3-methyl-4-(4-(trifluoromethyl)phenoxy)phenyl)-3-(5-methylisoxazol-4-yl)acrylamide], the pIC50 is 5.13.

Take `Cc1oncc1/C(O)=C(\C#N)C(=O)Nc1ncc(OCC2CCCC2)cn1` [Example 85, (Z)-2-cyano-N-(5-(cyclopentylmethoxy)pyrimidin-2-yl)-3-hydroxy-3-(5-methylisoxazol-4-yl)acrylamide]: the pIC50 was 6.80.

Consider `CCc1oncc1/C(O)=C(\C#N)C(=O)Nc1ccc(C(F)(F)F)cc1` [Example 141, (Z)-2-cyano-3-(5-ethylisoxazol-4-yl)-3-hydroxy-N-(4-(trifluoromethyl)phenyl)acrylamide], for which the pIC50 was 5.19.

Regarding `Cc1oncc1/C(O)=C(\C#N)C(=O)Nc1ncc(Oc2ccccc2)cn1` [Example 82, (Z)-2-cyano-3-hydroxy-3-(5-methylisoxazol-4-yl)-N-(5-phenoxypyrimidin-2-yl)acrylamide], the negative logarithm of the IC50 (pIC50) is 6.52.

`Cc1oncc1/C(O)=C(\C#N)C(=O)Nc1ncc(S(C)(=O)=O)c(-c2cccc(Cl)c2)n1` [Example 136, (Z)—N-(4-(3-chlorophenyl)-5-(methylsulfonyl)pyrimidin-2-yl)-2-cyano-3-hydroxy-3-(5-methylisoxazol-4-yl)acrylamide]: the pIC50 was 7.15.

For `Cc1oncc1/C(O)=C(\C#N)C(=O)Nc1ncc(C(=O)N(C)c2ccccc2)c(CCc2ccccc2)n1` [Example 134, (Z)-2-(2-cyano-3-hydroxy-3-(5-methylisoxazol-4-yl)acrylamido)-N-methyl-4-phenethyl-N-phenylpyrimidine-5-carboxamide], the pIC50 was 5.77.

Consider `Cc1oncc1/C(O)=C(\C#N)C(=O)Nc1cc(C(F)(F)F)cc(C(F)(F)F)c1` [Example 6, (Z)-N-(3,5-bis(trifluoromethyl)phenyl)-2-cyano-3-hydroxy-3-(5-methylisoxazol-4-yl)acrylamide], for which the pIC50 is 5.16.

As for `Cc1oncc1/C(O)=C(\C#N)C(=O)Nc1ncc(C(=O)NCc2ccccc2)cn1` [Example 106, N-benzyl-2-[[(Z)-2-cyano-3-hydroxy-3-(5-methylisoxazol-4-yl)prop-2-enoyl]amino]pyrimidine-5-carboxamide], the pIC50 is 7.30.

Consider `Cc1oncc1/C(O)=C(\C#N)C(=O)Nc1ccc(F)cc1` [Example 10, (Z)-2-cyano-N-(4-fluorophenyl)-3-hydroxy-3-(5-methylisoxazol-4-yl)acrylamide], for which the negative-log IC50 (pIC50) was 5.83.

For the compound `Cc1oncc1/C(O)=C(\C#N)C(=O)Nc1ccc(C#N)cc1` [Example 7, (Z)-2-cyano-N-(4-cyanophenyl)-3-hydroxy-3-(5-methylisoxazol-4-yl)acrylamide], the pIC50 was 6.10.

As for `Cc1oncc1/C(O)=C(\C#N)C(=O)Nc1ncc(C(=O)N(C)c2ccccc2)c(-c2ccccc2)n1` [Example 135, (Z)-2-(2-cyano-3-hydroxy-3-(5-methylisoxazol-4-yl)acrylamido)-N-methyl-N,4-diphenylpyrimidine-5-carboxamide], the pIC50 is 6.24.

As to `COCCOc1cnc(NC(=O)/C(C#N)=C(\O)c2cnoc2C)nc1-c1ccccc1` [Example 126, (Z)-2-cyano-3-hydroxy-N-(5-(2-methoxyethoxy)-4-phenylpyrimidin-2-yl)-3-(5-methylisoxazol-4-yl)acrylamide], the pIC50 was 6.38.

For `Cc1oncc1/C(O)=C(\C#N)C(=O)Nc1ccc(C(=O)N(C)CC2CCCCC2)c(Cl)c1` [Example 77, (Z)-2-chloro-4-(2-cyano-3-hydroxy-3-(5-methylisoxazol-4-yl)acrylamido)-N-(cyclohexylmethyl)-N-methylbenzamide], the pIC50 was 5.60.

As for `COc1ccc(-c2cnc(NC(=O)/C(C#N)=C(\O)c3cnoc3C)nc2)cc1` [Example 80, (Z)-2-cyano-3-hydroxy-N-(5-(4-methoxyphenyl)pyrimidin-2-yl)-3-(5-methylisoxazol-4-yl)acrylamide], the pIC50 is 6.21.

Regarding `Cc1oncc1/C(O)=C(\C#N)C(=O)Nc1ccc(S(C)(=O)=O)cc1Cl` [Example 61, (Z)-N-(2-chloro-4-methylsulfonyl-phenyl)-2-cyano-3-hydroxy-3-(5-methylisoxazol-4-yl)prop-2-enamide], the pIC50 is 6.96.

As to `Cc1oncc1/C(O)=C(\C#N)C(=O)Nc1ccc(Oc2ccccc2)cn1` [Example 83, (Z)-2-cyano-3-hydroxy-3-(5-methylisoxazol-4-yl)-N-(5-phenoxypyridin-2-yl)acrylamide], the pIC50 was 5.99.

Regarding `COc1ccc(NC(=O)/C(C#N)=C(\O)c2cnoc2C)cc1C` [Example 31, (Z)-2-cyano-3-hydroxy-N-(4-methoxy-3-methyl-phenyl)-3-(5-methylisoxazol-4-yl)prop-2-enamide], the pIC50 is 5.89.

In the case of `COCCN(C)S(=O)(=O)c1ccc(NC(=O)/C(C#N)=C(\O)c2cnoc2C)cc1` [Example 119, (Z)-2-Cyano-3-hydroxy-N-(4-(N-(2-methoxyethyl)-N-methylsulfamoyl)phenyl)-3-(5-methylisoxazol-4-yl)acrylamide], the pIC50 is 6.77.

With `Cc1oncc1/C(O)=C(\C#N)C(=O)Nc1ncc(C(=O)N(C)c2ccccc2)cn1` [Example 99, 2-[[(Z)-2-cyano-3-hydroxy-3-(5-methylisoxazol-4-yl)prop-2-enoyl]amino]-N-methyl-N-phenyl-pyrimidine-5-carboxamide], the pIC50 is 7.05.

In the case of `COc1cc(NC(=O)/C(C#N)=C(\O)c2cnoc2C)ccc1C(F)(F)F` [Example 76, (Z)-2-cyano-3-hydroxy-N-(3-methoxy-4-(trifluoromethyl)phenyl)-3-(5-methylisoxazol-4-yl)acrylamide], the pIC50 was 5.35.

As for `Cc1oncc1/C(O)=C(\C#N)C(=O)Nc1ncc(C(=O)N(C)Cc2ccccc2)c(-c2ccccc2)n1` [Example 132, (Z)—N-Benzyl-2-(2-cyano-3-hydroxy-3-(5-methylisoxazol-4-yl)acrylamido)-N-methyl-4-phenylpyrimidine-5-carboxamide], the pIC50 is 6.72.

For the compound `Cc1oncc1/C(O)=C(\C#N)C(=O)Nc1ccc(S(=O)(=O)NC(C)(C)C)cn1` [Example 93, (Z)-N-(5-(N-(tert-butyl)sulfamoyl)pyridin-2-yl)-2-cyano-3-hydroxy-3-(5-methylisoxazol-4-yl)acrylamide], the pIC50 is 6.85.

For the compound `Cc1oncc1/C(O)=C(\C#N)C(=O)Nc1ncc(S(=O)(=O)c2ccccc2)c(-c2cccc(F)c2)n1` [Example 139, (Z)-2-cyano-N-(4-(3-fluorophenyl)-5-(phenylsulfonyl)pyrimidin-2-yl)-3-hydroxy-3-(5-methylisoxazol-4-yl)acrylamide], the pIC50 is 7.22.

As to `Cc1cc(C#N)ccc1NC(=O)/C(C#N)=C(\O)c1cnoc1C` [Example 22, (Z)-2-cyano-N-(4-cyano-2-methylphenyl)-3-hydroxy-3-(5-methylisoxazol-4-yl)acrylamide], the pIC50 was 6.16.

For the compound `Cc1oncc1/C(O)=C(\C#N)C(=O)Nc1ccc(C(F)(F)F)c(Cl)c1` [Example 65, (Z)-N-(3-chloro-4-(trifluoromethyl)phenyl)-2-cyano-3-hydroxy-3-(5-methylisoxazol-4-yl)acrylamide], the pIC50 is 5.78.

With `CNC(=O)c1ccc(NC(=O)/C(C#N)=C(\O)c2cnoc2C)cc1` [Example 36, 4-[[(Z)-2-cyano-3-hydroxy-3-(5-methylisoxazol-4-yl)prop-2-enoyl]amino]-N-methyl-benzamide], the negative logarithm of the IC50 (pIC50) was 6.43.

For `Cc1oncc1/C(O)=C(\C#N)C(=O)Nc1ccc(S(=O)(=O)N(C)CCN(C)C)cc1` [Example 120, (Z)-2-cyano-N-(4-(N-(2-(dimethylamino)ethyl)-N-methylsulfamoyl)phenyl)-3-hydroxy-3-(5-methylisoxazol-4-yl)acrylamide], the pIC50 was 6.17.

Turning to `Cc1oncc1/C(O)=C(\C#N)C(=O)Nc1ccc(C(F)(F)F)cc1` [Example 4, (Z)-2-cyano-3-hydroxy-3-(5-methylisoxazol-4-yl)-N-(4-(trifluoromethyl)phenyl) acrylamide], the pIC50 was 6.02.
